Reference: article PMC6311682, “Design, Synthesis, and Biological Evaluation of 2-Nitroimidazopyrazin-one/-es with Antitubercular and Antiparasitic Activity” (Journal of Medicinal Chemistry, 2018)
Converted amounts (≈) assume the structure as drawn. Like-named read-outs stand apart in the source and are kept apart here. Marks after values point to notes of the source that are not given here.

What was measured:
HepG2 cells = test system: HepG2 cells; parameters: method as in Jarrad et al. 2; conditions: ATCC HB-8065; ref Jarrad et al. 2; read-out: cytotoxicity CC50 HepG2; cited from earlier work
HEK293 cells = test system: HEK293 cells; parameters: method as in Jarrad et al. 2; conditions: ATCC CRL-1573; ref Jarrad et al. 2; read-out: cytotoxicity CC50 HEK 293; cited from earlier work
[1] = test system: C. albicans (ATCC 90028) and C. neoformans (H99, ATCC 208821); assay: Broth microdilution MIC assay, fungi; assay type: cell-based; conditions: for MIC: Candida albicans, read-out: antifungal MIC
[2] = Kinetic solubility determination by LC-UV; conditions: room temperature, 1% DMSO
[3] = test system: L. donovani MHOM/IN/80/DD8 (ATCC50212); assay: L. donovani DD8 intracellular (THP-1) amastigote assay; assay type: cell-based; conditions: Leishmania donovani
[4] = test system: C. difficile (630, ATCC BAA-1382); assay: Broth microdilution MIC assay, C. difficile; assay type: cell-based, Clostridium difficile; conditions: 630 ATCC BAA-1382, median MIC; for MIC: Clostridioides difficile, ATCCBAA1382, read-out: antibacterial MIC C. difficile
[5] = Mammalian cytotoxicity assay (resazurin), HepG2; conditions: human, HepG2 cells
[6] = Mammalian cytotoxicity assay (resazurin), HEK293; conditions: human, HEK293 cells
[7] = test system: ESKAPE pathogens S. aureus (ATCC 43300), E. coli (ATCC 25922), K. pneumoniae (ATCC 700603), A. baumannii (ATCC 19606), P. aeruginosa (ATCC 27853); assay: Broth microdilution MIC assay, ESKAPE pathogens; assay type: cell-based
[8] = Broth microdilution MIC assay, ESKAPE pathogens; assay type: cell-based; conditions: S. aureus, E. coli, K. pneumoniae, A. baumannii, P. aeruginosa; read-out: antibacterial MIC ESKAPE
[9] = PBS, pH 7.4, Solubility µM (PBS), PBS pH 7.4, 24 h
[10] = water, Solubility µM (H2O), 24 h
[11] = read-out: antiparasitic IC50 L. donovani
[12] = read-out: antiparasitic pIC50 ± SE L. donovani (converted)

SMILES | CC50 (HepG2 cells) | CC50 (HEK293 cells) | antifungal MIC [1] | MIC [1] | solubility at 24 h [2, 9] | solubility at 24 h [2, 10] | IC50 [3, 11] | IC50 [3, 12] | antibacterial MIC C. difficile [4] | MIC [4] | CC50 at 24 h [5] | CC50 at 24 h [6] | antibacterial MIC ESKAPE [7] | MIC [8]
O=C(NCc1ccc(F)cc1)c1ncc([N+](=O)[O-])[nH]1 [16e] | > 100 µM | > 100 µM | – | – | – | – | – | – | – | – | – | – | – | –
O=C(NCc1cccc(OC(F)(F)F)c1)c1ncc([N+](=O)[O-])[nH]1 [16f] | > 100 µM | > 100 µM | – | – | – | – | – | – | – | – | – | – | – | –
CC(=O)OCCOc1nc(-c2ccccc2)cn2cc([N+](=O)[O-])nc12 [24c, 2-((2-Nitro-6-phenylimidazo[1,2-a]pyrazin-8-yl)oxy)ethyl Acetate] | – | – | >32 µg/mL | > 32 µg/mL | < 5 µM | < 5 µM | > 80 µM | > 79.4 µM | >64 µg/mL | > 64 µg/mL | > 100 µM | > 100 µM | >32 µg/mL | > 32 µg/mL
O=[N+]([O-])c1cn2cc(-c3ccccc3)nc(OCCO)c2n1 [24e, 2-((2-Nitro-6-phenylimidazo[1,2-a]pyrazin-8-yl)oxy)ethan-1-ol] | – | – | >32 µg/mL | > 32 µg/mL | < 5 µM | < 5 µM | > 80 µM | > 79.4 µM | >64 µg/mL | > 64 µg/mL | > 100 µM | > 100 µM | 16-32* μg/mL | 16 to 32 µg/mL (≈ 53.3 to 107 µM)
Cc1cn2cc([N+](=O)[O-])nc2c(=O)[nH]1 [25a, 6-Methyl-2-nitroimidazo[1,2-a]pyrazin-8(7H)-one] | – | – | >32 µg/mL | > 32 µg/mL | 183 ± 29.2 µM (≈ 35.5 µg/mL) | 182 ± 18.2 µM (≈ 35.3 µg/mL) | > 80 µM | > 79.4 µM | >64 µg/mL | > 64 µg/mL | > 100 µM | > 100 µM | >32 µg/mL | > 32 µg/mL
CC(=O)OCCOc1nc(C)cn2cc([N+](=O)[O-])nc12 [25c, 2-((6-Methyl-2-nitroimidazo[1,2-a]pyrazin-8-yl)oxy)ethyl] | – | – | >32 µg/mL | > 32 µg/mL | 185 ± 2.69 µM (≈ 51.8 µg/mL) | 169 ± 11 µM (≈ 47.4 µg/mL) | > 80 µM | > 79.4 µM | >64 µg/mL | > 64 µg/mL | > 100 µM | > 100 µM | >32 µg/mL | > 32 µg/mL
Cc1cn2cc([N+](=O)[O-])nc2c(=O)n1CCO [25d, 7-(2-Hydroxyethyl)-6-methyl-2-nitroimidazo[1,2-a]pyrazin-8(7H)-one] | – | – | >32 µg/mL | > 32 µg/mL | > 200 µM | > 200 µM | > 80 µM | > 79.4 µM | >64 µg/mL | > 64 µg/mL | > 100 µM | > 100 µM | >32 µg/mL | > 32 µg/mL
Cc1cn2cc([N+](=O)[O-])nc2c(OCCO)n1 [25e, 2-((6-Methyl-2-nitroimidazo[1,2-a]pyrazin-8-yl)oxy)ethan-1-ol] | – | – | >32 µg/mL | > 32 µg/mL | 193 ± 3.28 µM (≈ 46 µg/mL) | 196 ± 1.45 µM (≈ 46.7 µg/mL) | > 80 µM | > 79.4 µM | >64 µg/mL | > 64 µg/mL | > 100 µM | > 100 µM | >32 µg/mL | > 32 µg/mL
Cc1ccc(Cn2c(C)cn3cc([N+](=O)[O-])nc3c2=O)cc1 [25h, 6-Methyl-7-(4-methylbenzyl)-2-nitroimidazo[1,2-a]pyrazin-8(7H)-one] | – | – | >32 µg/mL | > 32 µg/mL | – | 7.5 ± 0.245 µM (≈ 2.24 µg/mL) | > 40 µM | > 39.8 µM | – | – | > 100 µM | > 100 µM | >32 µg/mL | > 32 µg/mL
Cc1cn2cc([N+](=O)[O-])nc2c(=O)n1Cc1cccc(OC(F)(F)F)c1 [25j, 6-Methyl-2-nitro-7-(3-(trifluoromethoxy)benzyl)imidazo[1,2-a]pyrazin-8(7H)-one] | – | – | >32 µg/mL | > 32 µg/mL | < 5 µM | < 5 µM | > 20 µM | > 20 µM | – | – | > 100 µM | > 100 µM | >32 µg/mL | > 32 µg/mL
Cc1cn2cc([N+](=O)[O-])nc2c(=O)n1Cc1ccccc1OC(F)(F)F [25l, 6-Methyl-2-nitro-7-(2-(trifluoromethoxy)benzyl)imidazo[1,2-a]pyrazin-8(7H)-one] | – | – | >32 µg/mL | > 32 µg/mL | < 5 µM | < 5 µM | > 40 µM | > 39.8 µM | – | – | > 100 µM | > 100 µM | >32 µg/mL | > 32 µg/mL
Cc1[nH]c(=O)c2nc([N+](=O)[O-])cn2c1C [26a, 5,6-Dimethyl-2-nitroimidazo[1,2-a]pyrazin-8(7H)-one] | – | – | >32 µg/mL | > 32 µg/mL | > 200 µM | > 200 µM | > 80 µM | > 79.4 µM | >64 µg/mL | > 64 µg/mL | > 100 µM | > 100 µM | >32 µg/mL | > 32 µg/mL
Cc1nc(OCc2ccc(OC(F)(F)F)cc2)c2nc([N+](=O)[O-])cn2c1C [26c, 5,6-Dimethyl-2-nitro-8-((4-(trifluoromethoxy)benzyl)oxy)imidazo[1,2-a]pyrazine] | – | – | >32 µg/mL | > 32 µg/mL | < 5 µM | < 5 µM | > 80 µM | > 79.4 µM | >64 µg/mL | > 64 µg/mL | > 100 µM | > 100 µM | >32 µg/mL | > 32 µg/mL
Cc1ccc(Cn2c(C)c(C)n3cc([N+](=O)[O-])nc3c2=O)cc1 [26d, 5,6-Dimethyl-7-(4-methylbenzyl)-2-nitroimidazo[1,2-a]pyrazin-8(7H)-one] | – | – | >32 µg/mL | > 32 µg/mL | 6.13 ± 0.0957 µM (≈ 1.91 µg/mL) | 8.95 ± 1.51 µM (≈ 2.8 µg/mL) | > 40 µM | > 39.8 µM | – | – | > 100 µM | > 100 µM | >32 µg/mL | > 32 µg/mL
Cc1ccc(COc2nc(C)c(C)n3cc([N+](=O)[O-])nc23)cc1 [26e, 5,6-Dimethyl-8-((4-methylbenzyl)oxy)-2-nitroimidazo[1,2-a]pyrazine] | – | – | >32 µg/mL | > 32 µg/mL | < 5 µM | < 5 µM | > 20 µM | > 20 µM | – | – | > 100 µM | > 100 µM | >32 µg/mL | > 32 µg/mL
Cc1nc(OCc2cccc(OC(F)(F)F)c2)c2nc([N+](=O)[O-])cn2c1C [26g, 5,6-Dimethyl-2-nitro-8-((3-(trifluoromethoxy)benzyl)oxy)imidazo[1,2-a]pyrazine] | – | – | >32 µg/mL | > 32 µg/mL | < 5 µM | < 5 µM | > 20 µM | > 20 µM | – | – | > 100 µM | > 100 µM | >32 µg/mL | > 32 µg/mL
NC(=O)c1nc([N+](=O)[O-])cn1Cc1ccc(OC(F)(F)F)cc1 [28c] | > 100 µM | > 100 µM | – | – | – | – | – | – | – | – | – | – | – | –
NC(=O)c1nc([N+](=O)[O-])cn1Cc1ccc(F)cc1 [28e] | > 100 µM | > 100 µM | – | – | – | – | – | – | – | – | – | – | – | –
NC(=O)c1nc([N+](=O)[O-])cn1Cc1cccc(OC(F)(F)F)c1 [28f] | > 100 µM | > 100 µM | – | – | – | – | – | – | – | – | – | – | – | –
CNC(=O)c1nc([N+](=O)[O-])cn1Cc1ccc(OC(F)(F)F)cc1 [28g] | > 100 µM | > 100 µM | – | – | – | – | – | – | – | – | – | – | – | –
CN(C)C(=O)c1nc([N+](=O)[O-])cn1Cc1ccc(OC(F)(F)F)cc1 [28h] | > 100 µM | > 100 µM | – | – | – | – | – | – | – | – | – | – | – | –
CCOC(=O)c1nc([N+](=O)[O-])cn1Cc1ccc(OC(F)(F)F)cc1 [28i] | > 100 µM | > 100 µM | – | – | – | – | – | – | – | – | – | – | – | –
NNC(=O)c1nc([N+](=O)[O-])cn1Cc1ccc(OC(F)(F)F)cc1 [28k] | > 100 µM | > 100 µM | – | – | – | – | – | – | – | – | – | – | – | –
Cc1ncc([N+](=O)[O-])n1CCO [metronidazole 1, metronidazole, reference compound] | > 100 µM | > 100 µM | – | > 32 µg/mL | – | – | – | – | – | – | > 100 µM | > 100 µM | – | > 32 µg/mL
